{"source": "patent US5039662A", "about": "“Peptide with anti-metastasis activity” (Monsanto, priority 1989, dated 1991)", "key": {"[1]": {"system": "HT-1080 cells", "test": "In vitro cell attachment assay", "type": "cell-based", "details": "HT-1080 human fibrosarcoma cells; attachment to peptide-coated wells / inhibition of attachment to laminin; FIG. 1", "procedure": "HT-1080 cells from a human fibrosarcoma (Rasheed, S. et al., Cancer (Philadelphia) 33:1027 (1974) are maintained in Dulbecco's modified Eagle's medium (DMEM) supplemented with 10% fetal calf serum. After the cells are grown to 80% confluency, they are washed with 0.02M phosphate buffer, pH 7.4, without CA ^30 2 and Mg^30 2 and detached with a solution of 0.025% trypsin plus 0.025% ethylenediaminetetraacetic acid (EDTA; GIBCO). The cells are then pelleted by lowspeed centrifugation and resuspended in Eagle's minimal essential medium (EMEM) containing 0.02% bovine serum albumin (BSA, Sigma Chemical Co., St. Louis, Mo.). Cell attachment assays are performed as described in Klebe, R. J. Nature (London) 250:248 (1974), on tissue culture plastic substrates by using 16-mm Falcon tissue culture wells (Fisher Scientific Co., Pittsburg, Pa.) incubated with various peptides or with laminin in 1 mL of EMEM containing 0.02% BSA for 1 or 2 hours at 37° C. Cells (10^5 in 0.1 1 mL) are added to the wells, and the solution is incubated for an additional 1 hour at 37° C. in 95% air and 5% CO2. Subsequently, the wells are rinsed 3 times with 1 mL of phosphate-buffered saline (PBS) to remove unattached cells. Attached cells are trypsinized and counted electronically (Coulter, ZBI). […]"}, "[2]": {"system": "B16F10 melanoma cells", "test": "Lung tumor colonization assay", "type": "in vivo, C57BL/6 female mice", "details": "B16F10 cells (5×10^5) mixed with 0.1 mL peptide at 5 mg/mL, tail vein injection, lungs counted after three weeks, FIG. 2", "procedure": "B16F10 melanoma cells, obtained from I. J. Fidler, M. D., Anderson Hospital, Houston, Tex., are propagated under standard culture conditions. The lung tumor colonization assay is carried out as described in Fidler, I. J., Nature (London) (New Biol) 242:148 (1973). Peptides are dissolved at 5 mg/mL in PBS and are filter-sterilized. The suspension of B16F10 cells (5×10^5) in 0.1 mL of DMEM is mixed with 0.1 mL of the peptide, (or 0.1 ml PBS in Control) incubated for 5 minutes at room temperature, and then injected into the tail vein of syngeneic C57BL/6 female mice (Jackson Labs., Bar Habor, Me.) at 6 weeks of age. Each treatment and control group consists of eight mice. Three weeks after the injections, the mice are killed and the number of pulmonary tumors on the surface of the lungs counted."}}, "note": "Peptide text beside a SMILES is read from it."}
{"smiles": "CC[C@H](C)[C@H](NC(=O)[C@H](Cc1ccc(O)cc1)NC(C)=O)C(=O)NCC(=O)N[C@@H](CO)C(=O)N[C@@H](CCCNC(=N)N)C(N)=O", "note": "[AcYIGSR-NH2] (Ac-YIGSR-NH2)", "values": [{"measurement": "cell adhesion activity", "setting": "[1]", "result": "having cell adhesion activity"}, {"measurement": "antimetastatic effectiveness (number of pulmonary tumors on the surface of the lungs) relative to YIGSR-NH2", "setting": "[2]", "result": "at least twice as effective as YIGSR-NH2"}, {"measurement": "antimetastatic effectiveness (number of pulmonary tumors on the surface of the lungs) relative to YIGSR-NH2", "setting": "[2]; listed as peptide of the invention", "result": "at least twice as effective as linear YIGSR-NH2"}]}
